Data set [1] addresses T1, human TRPV1 (Homo sapiens, UniProt Q8NER1).
T1 construct: expressed in transfected cells; host or cells: CHO-K1 cells, pCAGGS vector, clones selected by limiting dilution
In words: Capsaicin-induced Ca influx in transformed CHO cells, FDSS-6000 (b-1), A2 value. The conditions noted are these: concentration shifting the capsaicin concentration-reaction curve two times rightward; CHO cells expressing TRPV1. The format is cell-based. The source says: (§1) (1) Measurement of Capsaicin-Induced Ca Influx in a Transformed CHO Cell Line Expressing Human TRPV1
(§2) (a) Establishment of a Transformed CHO Cell Line Expressing Human and Rat TRPV1
(§3) Human and rat vanilloid receptor 1 (hTRPV1 and rTRPV1) cDNA was cloned from human brain and rat dorsal root ganglion, respectively. The cloned TRPV1 cDNA was incorporated in a pCAGGS vector. The vector was introduced to a CHO-K1 cell line, thus performing transformation. Clones obtained by limiting dilution were stimulated with capsaicin. Clones with a high responsiveness were selected using an increase in the Ca concentration as an indicator. The selected clones were used for the following experiment.
(b-1) Measurement of Ca Influx using FDSS-6000
The transformed CHO cells expressing human or rat TRPV1 were seeded in a 96-well plate (with black walls and transparent bottoms, manufactured by Greiner) at a density of 40,000 cells per well. The cells were cultured at 37° C. in 5% CO2 atmosphere for one night. A loading solution of FLIPR Calcium 3 assay kit (manufactured by Molecular Devices Corporation) containing 2.5 mmol/L of probenecid was then added to each of the wells in the same amount as the culture medium, and the cells were cultured at 37° C. for 60 minutes. For three minutes after the cells were stimulated with capsaicin (1 nmol/L to 1 μmol/L), the change of the intracellular Ca concentration was measured using FDSS-6000 (λex: 480 nm, λem: […], manufactured by Hamamatsu Photonics K.K.). The integrated values of the increase rate of the intracellular Ca concentration were calculated for a group treated with the compounds of the present invention and a group treated with a vehicle, thus allowing capsaicin concentration-reaction curves to be obtained. A concentration (A2 value) of each of the compounds of the present invention, at which the capsaicin concentration-reaction curve obtained when the cells were treated with the vehicle was shifted two times rightward, was calculated. The inhibitory effects of the test compounds were compared using this value as an indicator.

The nature of data set [2]: Effects on rectal temperature (8-1), oral administration to rats. Format: in vivo, rat. The conditions noted are these: oral single doses of 3, 10 and 30 mg/kg; 30, 60 and 120 minutes; maximum absolute difference vs vehicle. How it is done:
(8-1) Effects on Rectal Temperature
A test compound was orally administered to rats at single doses of 3, 10 and 30 mg/kg. Then rectal temperature was measured 30, 60 and 120 minutes after administration.
Differences of the mean value between a group treated with test substance and a vehicle-treated group were calculated at all measuring points and, based on the maximum absolute value of differences, changes in rectal temperature were divided into the following three categories:
−: the maximum value was less than 0.5 degree Celsius +: the maximum value was more than 0.5 degree but less than 1.0 degree Celsius ++: the maximum value was more than 1.0 degree Celsius

In data set [3] the target is T1, human TRPV1. The data set is described as follows: Capsaicin (10 nmol/L)-induced Ca influx in transformed CHO cells, FDSS-6000 (b-2), IC50. Format: cell-based.
Excerpt: as §1, §2, §3
(b-2) Measurement of Ca Influx using FDSS-6000
The transformed CHO cells expressing human or rat TRPV1 were inoculated in a 96-well plate (with black walls and transparent bottoms, manufactured by Greiner) at a density of 40,000 cells per well. The cells were cultured at 37° C. in 5% CO2 atmosphere for one night. A loading solution of FLIPR Calcium 3 assay kit (manufactured by Molecular Devices Corporation) containing 2.5 mmol/L of probenecid was then added to each of the wells in the same amount as the culture medium, and the cells were cultured at 37° C. for 60 minutes. For three minutes after the cells were stimulated with capsaicin (10 nmol/L), the change of the intracellular Ca concentration was measured using FDSS-6000 (λex: 480 nm, λem: 540 nm, manufactured by Hamamatsu Photonics K.K.). The integrated values of the increase rate of the intracellular Ca concentration were calculated for a group treated with the compounds of the present invention and a group treated with a vehicle. Then, the concentration of the compound of the present invention was calculated that inhibits 50% of the intracellular Ca concentration increase induced by capsaicin (IC50). Using this value as the index, inhibitory effects of the test compounds were compared. In addition, when IC50 value in human TRPV1 was less than 100 nmol/L, it was shown as A in Table 1C.

Some results are limits rather than exact numbers.

By IC50 is commonly meant the concentration that inhibits the measured activity by half. Lower therefore signals inhibition by little substance.

T1 sequence (Q8NER1 whole entry): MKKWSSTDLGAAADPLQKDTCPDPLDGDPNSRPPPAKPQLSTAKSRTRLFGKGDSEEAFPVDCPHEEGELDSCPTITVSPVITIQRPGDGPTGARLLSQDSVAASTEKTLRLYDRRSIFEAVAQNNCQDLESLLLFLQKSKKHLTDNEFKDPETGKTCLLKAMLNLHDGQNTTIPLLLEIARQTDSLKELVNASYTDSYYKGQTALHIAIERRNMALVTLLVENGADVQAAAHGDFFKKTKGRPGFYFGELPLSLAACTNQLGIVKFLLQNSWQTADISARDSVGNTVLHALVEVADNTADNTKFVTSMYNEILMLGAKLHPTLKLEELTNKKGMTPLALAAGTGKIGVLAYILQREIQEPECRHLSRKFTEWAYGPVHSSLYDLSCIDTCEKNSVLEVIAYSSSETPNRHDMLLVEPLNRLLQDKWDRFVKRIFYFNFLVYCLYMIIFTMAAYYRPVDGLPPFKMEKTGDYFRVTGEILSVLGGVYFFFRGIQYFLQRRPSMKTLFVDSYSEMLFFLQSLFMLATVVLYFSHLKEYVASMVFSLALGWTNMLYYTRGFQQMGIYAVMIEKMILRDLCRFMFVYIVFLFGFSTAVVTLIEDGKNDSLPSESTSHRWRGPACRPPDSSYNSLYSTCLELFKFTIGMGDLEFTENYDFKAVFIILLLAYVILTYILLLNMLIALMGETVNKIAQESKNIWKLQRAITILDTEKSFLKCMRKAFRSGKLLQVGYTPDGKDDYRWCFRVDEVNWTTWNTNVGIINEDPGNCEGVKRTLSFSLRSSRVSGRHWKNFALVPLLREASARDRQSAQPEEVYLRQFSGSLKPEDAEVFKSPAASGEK

Take `O=C(/C=C1\CCCOc2cc(C(F)(F)F)ccc21)Nc1ccc2c(c1)NC(=O)C(N1CCOCC1)C2` (single isomer, unassigned) [EXAMPLE 35, (E)-2-(8-trifluoromethyl-3,4-dihydrobenzo[b]oxepin-5(2H)-ylidene)-N-(3-(4-morpholinyl)-3,4-dihydro-2(1H)-quinolinon-7-yl)acetamide]: the A2 value result in data set [1] is “A (A2 value of less than 100 nM)”. The “Change in rectal temperature in rats” value in data set [2] is listed as “− (the maximum value was less than 0.5 degree Celsius)”.

As for `CC1(C)Nc2ccc(NC(=O)/C=C3\CCCOc4cc(C(F)(F)F)ccc43)cc2NC1=O` [EXAMPLE 10, (E)-2-(8-trifluoromethyl-3,4-dihydrobenzo[b]oxepin-5(2H)-ylidene)-N-(3,3-dimethyl-3,4-dihydro-2(1H)-quinoxalinon-7-yl)acetamide], the A2 value entry in data set [1] was “A (A2 value of less than 100 nM)”. Further, the “Change in rectal temperature in rats” value in data set [2] is recorded as “+ (the maximum value was more than 0.5 degree but less than 1.0 degree Celsius)”.

As for `O=C(/C=C1\CCCOc2cc(C(F)(F)F)ccc21)Nc1ccc2c(c1)NC(=O)NC2` [EXAMPLE 13, (E)-2-(8-trifluoromethyl-3,4-dihydrobenzo[b]oxepin-5(2H)-ylidene)-N-(3,4-dihydro-1H-quinazolin-2-on-7-yl)acetamide], the A2 value result in data set [1] is listed as “A (A2 value of less than 100 nM)”. Moreover, the “Change in rectal temperature in rats” value in data set [2] is “− (the maximum value was less than 0.5 degree Celsius)”.

With `CN1Cc2ccc(NC(=O)/C=C3\CCCOc4cc(C(F)(F)F)ccc43)cc2NC1=O` [EXAMPLE 14, (E)-2-(8-trifluoromethyl-3,4-dihydrobenzo[b]oxepin-5(2H)-ylidene)-N-(3-methyl-3,4-dihydro-2(1H)-quinazolinon-7-yl)acetamide], the “Change in rectal temperature in rats” value in data set [2] is on record as “− (the maximum value was less than 0.5 degree Celsius)”.

Turning to `O=C(/C=C1\CCCOc2cc(C(F)(F)F)ccc21)Nc1ccc2c(c1)NC(=O)N(CCO)C2` [EXAMPLE 15, (E)-2-(8-trifluoromethyl-3,4-dihydrobenzo[b]oxepin-5(2H)-ylidene)-N-(3-(2-hydroxyethyl)-3,4-dihydro-2(1H)-quinazolinon-7-yl)acetamide], the A2 value result in data set [1] was “A (A2 value of less than 100 nM)”. Also, the “Change in rectal temperature in rats” value in data set [2] is on record as “− (the maximum value was less than 0.5 degree Celsius)”.

As to `O=C(/C=C1\CCOc2cc(C(F)(F)F)ccc21)Nc1ccc2c(c1)NC(=O)CC2` [EXAMPLE 23, (E)-2-(7-trifluoromethylchroman-4-ylidene)-N-(3,4-dihydroquinolin-2(1H)-on-7-yl)acetamide], in data set [1], the A2 value entry is on record as “A (A2 value of less than 100 nM)”. Moreover, the “Change in rectal temperature in rats” value in data set [2] is given as “− (the maximum value was less than 0.5 degree Celsius)”.

As to `CC1(C)N/C(=C\C(=O)Nc2ccc3c(c2)NC(=O)CC3)c2ccc(C(F)(F)F)cc2O1` [EXAMPLE 26, (Z)-2-(6-trifluoromethyl-3,3-dimethyl-4-oxa-3,4-dihydroisoquinolin-1(2H)-ylidene)-N-(3,4-dihydroquinolin-2(1H)-on-7-yl)acetamide], the A2 value result in data set [1] is given as “A (A2 value of less than 100 nM)”. For the same compound, the “Change in rectal temperature in rats” value in data set [2] is reported as “− (the maximum value was less than 0.5 degree Celsius)”.

With `O=C(/C=C1\CCCOc2cc(C(F)(F)F)ccc21)Nc1ccc2c(c1)NC(=O)C(N1CCOCC1)C2` (stereo not shown) [EXAMPLE 30, (E)-2-(8-trifluoromethyl-3,4-dihydrobenzo[b]oxepin-5(2H)-ylidene)-N-(3-(4-morpholinyl)-3,4-dihydro-2(1H)-quinolinon-7-yl)acetamide], in data set [2], the “Change in rectal temperature in rats” value was “− (the maximum value was less than 0.5 degree Celsius)”.

For the compound `O=C(/C=C1\CCCOc2cc(C(F)(F)F)ccc21)Nc1ccc2cc(CO)c(=O)[nH]c2c1` [Example 93, (E)-2-(8-trifluoromethyl-3,4-dihydrobenzo[b]oxepin-5(2H)-ylidene)-N-(3-hydroxymethyl-2(1H)-quinolinon-7-yl)acetamide], in data set [2], the “Change in rectal temperature in rats” value is “− (the maximum value was less than 0.5 degree Celsius)”.

As for `CC1(C)C/C(=C\C(=O)Nc2ccc3c(c2)NC(=O)C3(C)C)c2ccc(C(F)(F)F)cc2O1` [Example 109, (E)-2-(7-trifluoromethyl-2,2-dimethylchroman-4-ylidene)-N-(3,3-dimethyl-2(1H)-indolinon-6-yl)acetamide], the “Change in rectal temperature in rats” value in data set [2] was “− (the maximum value was less than 0.5 degree Celsius)”.

Regarding `CC1(C)C(=O)Nc2cc(NC(=O)/C=C3\CC4(CCC4)Oc4cc(C(F)(F)F)ccc43)ccc21` [Example 110, (E)-2-(7-trifluoromethyl-spiro[chroman-2,1′-cyclobutane]-4-ylidene)-N-(3,3-dimethyl-2(1H)-indolinon-6-yl)acetamide], the “Change in rectal temperature in rats” value in data set [2] was “− (the maximum value was less than 0.5 degree Celsius)”.

Take `CN1C(=O)NCc2ccc(NC(=O)/C=C3\CCOc4cc(C(F)(F)F)ccc43)cc21` [Example 151, (E)-2-(7-trifluoromethyl-chroman-4-yliden)-N-(3,4-dihydro-1-methyl-2(1H)-quinazolinon-7-yl)acetamide]: the “Change in rectal temperature in rats” value in data set [2] is recorded as “− (the maximum value was less than 0.5 degree Celsius)”.

Turning to `CN1c2cc(NC(=O)/C=C3\CC4(CCC4)Oc4cc(C(F)(F)F)ccc43)ccc2CCS1(=O)=O` [Example 200, (E)-2-(7-trifluoromethyl-spiro[chroman-2,1′-cyclobutane]-4-ylidene)-N-(3,4-dihydro-2,2-dioxo-1-methyl-1H-2,1-benzothiazin-7-yl)acetamide], the “Change in rectal temperature in rats” value in data set [2] was “− (the maximum value was less than 0.5 degree Celsius)”.

In turn, `CN1C(=O)NCc2c(NC(=O)/C=C3\CCCOc4cc(C(F)(F)F)ccc43)cccc21` [Example 302, (E)-2-(3,4-dihydro-8-trifluoromethyl-1-benzoxepin-5(2H)-ylidene)-N-(3,4-dihydro-1-methyl-2(1H)-quinazolinone-5-yl)acetamide] gave an IC50 in data set [3] of under 100 nM.

In turn, `CN1C(=O)NCc2c(NC(=O)/C=C3\CCOCc4cc(C(F)(F)F)ccc43)cccc21` [Example 303, (E)-2-(3,4-dihydro-8-trifluoromethyl-2-benzoxepin-5(1H)-ylidene)-N-(3,4-dihydro-1-methyl-2(1H)-quinazolinone-5-yl)acetamide] had a half-maximal inhibitory concentration (IC50) in data set [3] of under 100 nM.

In data set [3], `CN1C(=O)NCc2c(NC(=O)/C=C3\CCOc4cc(C(F)(F)F)ccc43)cccc21` [Example 304, (E)-2-(7-trifluoromethylchroman-4-ylidene)-N-(3,4-dihydro-1-methyl-2(1H)-quinazolinone-5-yl)acetamide] came in with an IC50 of under 100 nM.

In turn, `CCN1C(=O)NCc2c(NC(=O)/C=C3\CCCOc4cc(C(F)(F)F)ccc43)cccc21` [Example 306, (E)-2-(3,4-dihydro-B-trifluoromethyl-1-benzoxepin-5(2H)-ylidene)-N-(3,4-dihydro-1-ethyl-2(1H)-quinazolinone-5-yl)acetamide] registered an IC50 in data set [3] of under 100 nM.

`CCN1C(=O)NCc2c(NC(=O)/C=C3\CCOCc4cc(C(F)(F)F)ccc43)cccc21` [Example 307, (E)-2-(3,4-dihydro-8-trifluoromethyl-2-benzoxepin-5(1H)-ylidene)-N-(3,4-dihydro-1-ethyl-2(1H)-quinazolinone-5-yl)acetamide] gave an IC50 in data set [3] of under 100 nM.

Take `CCN1C(=O)NCc2c(NC(=O)/C=C3\CCOc4cc(C(F)(F)F)ccc43)cccc21` [Example 308, (E)-2-(7-trifluoromethylchroman-4-ylidene)-N-(3,4-dihydro-1-ethyl-2(1H)-quinazolinone-5-yl)acetamide]: in data set [3], the concentration for half-maximal inhibition (IC50) was under 100 nM.

For the origin of these results see patent publication US20100016285A1, “HETEROCYCLIDENE-N-(ARYL) ACETAMIDE DERIVATIVE” (MOCHIDA PHARMACEUTICAL CO., LTD., priority 2007, published 2010).
